According to patent US20020143018A1 (priority 2000, published 2002):

Test system: Sarcocystis neurona strain SN3
Experiment: Microtiter Monolayer Disruption Assay (MMDA), inhibition of merozoite-induced cell destruction (CPE)
Assay type: cell-based
Details: S. neurona merozoites 50,000/well on BT cell monolayers, compound added 2 hours after infection, crystal violet readout, read-out: Percent Inhibition of Cell Destruction
Method: In order to determine the scope of protection provided by praziquantel, in vitro testing was conducted. Sarcocystis neurona was evaluated for its sensitivity to this compound. Strain SN3 of Sarcocystis neurona was used.
Bovine turbinate (BT) cells were used for all in vitro tests. Cells were grown to confluency in 25 cm^2 flasks in RMPI 1640 media supplemented with 10% v/v fetal bovine serum (FBS), 100 Units of penicillin (g/mL), […] and 5×10^−2 mM of 2-mercaptoethanol. After cell confluence was obtained, cells were maintained in the same media with reduced FBS (2% v/v). Cell cultures were incubated at 37 C. in a humidified atmosphere containing 5% carbon dioxide and 95% air.
For growth of the parasite, BT cell monolayers were infected with parasites and examined with an inverted microscope for the development of lesions (cytopathic effect, “CPE”) or the presence of many extracellular merozoites. Once lesions were observed, or many extracellular parasites were present, the monolayer was scraped with the tip of a 5 mL pipette and 1 to 3 drops of the merozoite-containing fluid was transferred to two flasks of fresh BT cells. […]
This assay was used to determine if the parasites or compound were toxic for BT cells. […] Each well was visually monitored daily and the assay was stopped when 90-100% of the untreated merozoite infected cells had lysed (90-100% CPE). […]

SMILES: O=C(C1CCCCC1)N1CC(=O)N2CCc3ccccc3C2C1 (centres unmarked) [Praziquantel, praziquantel]
- inhibition at 10 µg/mL (10 μg/mL): 51%
- inhibition at 20 µg/mL (20 μg/mL): 69%
